Test results reported in patent US7829557B2, “2-heterosubstituted 3-aryl-4H-1-benzopyran-4-ones as novel therapeutics in breast cancer” (The Ohio State University Research Foundation, priority 2006, dated 2010).
Read-outs that look alike come from different tables or passages of the source.

Legend:
[1] = test system: human breast cancer cell lines; assay: Suppression of proliferation of human breast cancer cell lines; type: cell-based; details: suppressing proliferation of human breast cancer cell lines; most potent of the series
Source text: Thus, we designed and synthesized several isoflavones containing a basic side chain connected through either an oxygen or a sulfur linkage (synthetic scheme—FIG. 9).

MCF-7 cells = assay: Dose response / IC50 for effects on proliferation in MCF-7 cells; type: cell-based, human
Description: Several members of the combinatorial library that was prepared in accordance with the methods of this invention have been tested for effects on proliferation in MCF-7 cells and MDA-MB-231 cells.
Dose response studies were performed with compounds from the combinatorial library. Compounds 234, 220, 244, 230, 258, YWK-II-14 and 4-OH-Tamoxifen were performed.
IC50 ranges for several members of the combinatorial library were within 95% confidence intervals.

[2] = 95% confidence interval, no unit in this head, cell line taken from Example 5 (MCF-7), read-out: IC50 Range
[3] = from GraphPad Prism fit, read-out: IC50 (From Program)
[4] = midpoint and half-width of the IC50 range, read-out: IC50 ± ΔIC50

| SMILES | IC50 [1] [nM] | IC50 (MCF-7 cells; [2]) [µM] | IC50 (MCF-7 cells; [3]) [µM] | IC50 (MCF-7 cells; [4]) [µM] |
| --- | --- | --- | --- | --- |
| COc1ccc(-c2c(Sc3ccc(OCCN4CCCCC4)cc3)oc3cc(O)ccc3c2=O)cc1 [Compound 310a] | 58 | – | – | – |
| O=c1c(-c2ccc(O)cc2)c(Sc2ccc(O)cc2)oc2cc(O)ccc12 [Compound 244] | – | 7.86 to 15.7 | 11.1 | 11.8 ± 3.94 |
| CC/C(=C(\c1ccc(O)cc1)c1ccc(OCCN(C)C)cc1)c1ccccc1 [4-OH Tamoxifen, reference compound] | – | 3.61 to 4.93 | 4.22 | 4.27 ± 0.66 |

The next lines start with the values.

| IC50 [1] [nM] | IC50 (MCF-7 cells; [2]) [µM] | IC50 (MCF-7 cells; [3]) [µM] | IC50 (MCF-7 cells; [4]) [µM] | SMILES |
| --- | --- | --- | --- | --- |
| – | ~6.31 | ~6.31 | ~6.31 | COc1ccc(-c2c(Oc3ccc(OCCN4CCCCC4)cc3)oc3cc(O)ccc3c2=O)cc1 [YWK-II-14] |
| – | 2.41 to 7.23 | 4.17 | 4.82 ± 2.41 | COc1ccc(-c2c(Sc3ccc(OCCN4CCCCC4)cc3)oc3cc(OCc4ccccc4)ccc3c2=O)cc1 [Compound 230] |
| – | 2.3 to 5.88 | 3.67 | 4.09 ± 1.79 | COc1ccc(-c2c(Oc3ccc(OCCN4CCCCC4)cc3)oc3cc(OCc4ccccc4)ccc3c2=O)cc1 [Compound 258] |
| – | 0.36 to 0.92 | 0.58 | 0.64 ± 0.28 | COc1ccc(-c2c(Sc3ccc(OCCN4CCCCC4)cc3)oc3cc(O)ccc3c2=O)cc1 [Compound 234] |
| – | 2.87 to 7.68 | 4.7 | 5.28 ± 2.4 | COc1ccc(-c2c(Sc3ccc(O)cc3)oc3cc(OCc4ccccc4)ccc3c2=O)cc1 [Compound 220] |
